Drawing on PubChem BioAssay AID652219 (Broad Institute, 2013), this text covers AC50 for 15 molecules.

Active and inactive are the calls of the source. The rule behind the calls is not given here.

The assay has as its system V. cholerae SLS353 luxOD47E qrr4-GFP fluorescence. Put plainly: Quorum LuxO inhibitors, V. cholerae SLS353 luxOD47E qrr4 GFP fluorescence, confirmatory dose response (AID 652219).
A word on the AC50: it is the concentration at which the activity in the assay is half-maximal. Turning to `CCC(C)NC(=O)Cc1ccc(-c2ccccc2)cc1` (stereo not given), the AC50 was > 500 µM (inactive).
As to `O=c1ncn(-c2cccc(Cl)c2)c2ccccc12`, the AC50 is 250 µM.
As for `O=C(Cc1ccc(-c2ccccc2)cc1)NC1CCCC1`, the AC50 was > 500 µM (inactive).
Regarding `CCCn1nnnc1NCc1ccc(N2CCCC2)cc1`, the AC50 was > 500 µM (inactive).
In the case of `O=C(Nc1nnc(-c2ccc3c(c2)OCCO3)o1)C1CCCCC1` it was 2 µM.
On to `COc1ccccc1NC(=O)COC(=O)c1oc2ccccc2c1C`, for which the AC50 is > 500 µM (inactive).
As to `CCOc1ccc(Nc2ccc3nonc3c2[N+](=O)[O-])cc1`, the AC50 is > 500 µM (inactive).
For the molecule `Cc1ccc2cc3c(NC(=O)c4ccco4)nn(C)c3nc2c1`, the AC50 was 4 µM.
For `COc1ccccc1NC(=O)COC(=O)c1cc2c(s1)CCC2`, the AC50 is > 500 µM (inactive).
As to `COc1ccccc1NC(=O)COC(=O)c1ccc(C)cc1`, the AC50 was > 500 µM (inactive).
`Cc1ccc(OCCNC(=O)c2cccc(C)c2)cc1`: the AC50 was 100 µM (inactive).
Turning to `CCCn1nnnc1NCc1ccc(C(C)C)cc1`, the AC50 is > 500 µM (inactive).
As to `CCn1nnnc1NCc1ccc(N2CCCC2)cc1`, the AC50 was > 500 µM (inactive).
`CCCn1nnnc1NCc1ccc(N(CC)CC)cc1`: the AC50 is > 500 µM (inactive).
Consider `COc1ccc(Cl)cc1NC(=O)COC(=O)c1ccc(C)o1`, for which the AC50 was > 500 µM (inactive).
